Where two headings read alike, the source gives them in different places.
What was measured:
[1] = test system: 3D7-strain P. falciparum asexual parasites; assay: P. falciparum asexual growth inhibition assay (Pf GIA); format: cell-based, Plasmodium falciparum; settings: dose response confirmation; read-out: Pf asexual growth inhibition assays IC50
Procedure, shortened: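 3D7 parasites at 0.25% parasitemia, 2% hematocrit were exposed to compounds in dose response for 72 h at 37°C under 5% CO2, 5% O2. Viability read as parasite LDH activity (nitro blue tetrazolium, A650) after freeze-thaw; inhibition scaled to chloroquine (50 μM) and DMSO controls, mean of three biological replicates.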

HepG2 cells = assay: HepG2 cytotoxicity assay; settings: for Unified cytotox: HepG2 values of the three screens unified; for IC50: read-out: HepG2 cytotoxicity assay IC50, dose response confirmation; for Pb ODA (this manuscript) HepG2 cytoxicity: HepG2 cytotoxicity listed with the Pb ODA data set (this manuscript)
Procedure, shortened: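 Percent inhibition derived from fluorescent viability readout, normalised to DMSO (negative) and 50 μM doxorubicin (positive). Compound incubation lasted 48 h at 37°C, 5% CO2, with 2,500 HepG2 cells/well in MEM plus 10% FBS and 1% NEAA.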

[2] = test system: P. berghei ookinete development; settings: for % inhibition, Replicate A / % inhibition, Replicate B: primary screen at 1 μM
[3] = read-out: Pb ODA IC50, this manuscript
[4] = read-out: Pb Ookinete development assay IC50, dose response confirmation
[5] = read-out: Pb Ookinete development assay IC50
[6] = read-out: Pb ODA (this manuscript) IC50, P. berghei ookinete development assay, this manuscript

Structure (SMILES) | IC50 [1] | HepG2 cytoxicity (Pb ODA, this manuscript) (HepG2 cells) | Unified cytotox (HepG2 cells) | IC50 (HepG2 cells) | Is compound selective in assay? Pb ODA active? ([2]; 1: YES, 0: NO) | % inhibition, Replicate A [2] | % inhibition, Replicate B [2] | IC50 [2, 3] | IC50 [2, 4] | IC50 ([2]; read-out: Pb ODA IC50) | IC50 [2, 5] | Pb ODA (this manuscript) HepG2 cytoxicity (HepG2 cells) | Is compound selective in assay? Pb ODA active? [2] | IC50 [2, 6]
CCc1cc2c3c(N)nc(N)nc3ccc2n1C(C)(C)C [TCMDC-137306] | 3.2 nM | 0.0017 µM | 0.0017 µM | 1.7 nM | 0 (0: NO) | 81.63% | 92.90% | 1080 nM | 1080 nM | – | – | – | – | –
CCC(C)(C)n1c(C)cc2c3c(N)nc(N)nc3ccc21 [TCMDC-137307] | 0.9 nM | 0.00169 µM | 0.00169 µM | 1.69 nM | – | 47.56% | 73.34% | – | – | 1190 nM | 1190 nM | – | – | –
CCc1cc2c3c(N)nc(N)nc3ccc2n1C(C)CC (centres unmarked) [TCMDC-137308] | < 0.2 nM | 0.0017 µM | 0.0017 µM | 1.7 nM | 0 (0: NO) | 67.31% | 61.54% | 690 nM | 694 nM | – | – | – | – | –
CCCc1cc2c3c(N)nc(N)nc3ccc2n1C(CC)CC [TCMDC-137312] | < 0.2 nM | 0.0017 µM | 0.0017 µM | 1.7 nM | 0 (0: NO) | 47.03% | 71.34% | 460 nM | 463 nM | – | – | – | – | –
CCC(CC)n1c(COC)cc2c3c(N)nc(N)nc3ccc21 [TCMDC-137313] | < 0.2 nM | 0.0017 µM | 0.0017 µM | 1.7 nM | 0 (0: NO) | 74.51% | 66.56% | 1350 nM | 1350 nM | – | – | – | – | –
COc1cc(Cn2ccc3c4c(N)nc(N)nc4ccc32)cc(OC)c1OC [TCMDC-137341] | < 0.3 nM | 0.0017 µM | 0.0017 µM | 1.7 nM | – | 61.35% | 58.11% | – | – | 560 nM | 556 nM | – | – | –
CNCCN(C)C(=O)Oc1c(Br)c(C)nc(C)c1-c1ccc(Oc2ccc(OC(F)(F)F)cc2)cc1.Cl [TCMDC-137377] | 71 nM | – | – | 8320 nM | – | 132.58% | 124.21% | – | 1480 nM | – | – | 8.32 µM | 0 (key: 1: YES; 0: NO) | 1480 nM
Cc1[nH]c(C)c(-c2ccc(Oc3ccc(Cl)cc3)cc2)c(=O)c1C [TCMDC-137378] | < 0.2 nM | 8.61 µM | 8.61 µM | 8610 nM | 1 (1: YES) | 87.44% | 100.49% | 640 nM | 636 nM | – | – | – | – | –
Cc1nc(C)c(-c2ccc(Oc3ccc(OC(F)(F)F)cc3)cc2)c(OC(=O)c2ccccc2)c1Cl [TCMDC-137380] | 173 nM | – | – | 37600 nM | – | 56.36% | 103.63% | – | 860 nM | – | – | 37.58 µM | 1 (key: 1: YES; 0: NO) | –
CC(=O)Oc1c(Cl)c(C)nc(C)c1-c1ccc(Oc2ccc(Cl)cc2)cc1 [TCMDC-137381] | 34 nM | – | – | 2630 nM | – | 96.93% | 129.91% | – | 98 nM | – | – | 2.63 µM | 1 (key: 1: YES; 0: NO) | 100 nM
Cc1nc(C)c(-c2ccc(Oc3ccc(OC(F)(F)F)cc3)cc2)c(OC(=O)c2ccc(CN(C)C)cc2)c1Cl [TCMDC-137382] | 127 nM | – | – | 24600 nM | – | 93.07% | 108.44% | – | 462 nM | – | – | 24.55 µM | 1 (key: 1: YES; 0: NO) | 460 nM
CC(=O)Oc1c(Br)c(C)nc(C)c1-c1ccc(Oc2ccc(OC(F)(F)F)cc2)cc1 [TCMDC-137383] | 150 nM | – | – | 9890 nM | – | 98.12% | 79.70% | – | 589 nM | – | – | 9.89 µM | 1 (key: 1: YES; 0: NO) | 590 nM
CC(=O)Oc1c(Cl)c(C)nc(C)c1-c1ccc(Oc2ccc(OC(F)(F)F)cc2)cc1 [TCMDC-137385] | 75 nM | – | – | 32000 nM | – | 89.00% | 125.42% | – | 1020 nM | – | – | 31.99 µM | 1 (key: 1: YES; 0: NO) | 1020 nM
Cc1[nH]c(C)c(-c2ccc(Oc3cccc(OC(F)(F)F)c3)cc2)c(=O)c1Cl [TCMDC-137389] | 470 nM | – | – | 100000 nM | – | 25.35% | 53.00% | – | 1130 nM | – | – | 100.00 µM | 1 (key: 1: YES; 0: NO) | 1130 nM
Cc1nc(C)c(-c2ccc(Oc3cc(Cl)cc(Cl)c3)cc2)c(O)c1Cl [TCMDC-137391] | 1.1 nM | – | – | 1.7 nM | – | 91.21% | 90.22% | – | 311 nM | – | – | 0.0017 µM | 0 (key: 1: YES; 0: NO) | 310 nM
Cc1nc(C)c(-c2ccc(Oc3cc(Cl)cc(Cl)c3)cc2)c(O)c1Br [TCMDC-137392] | 498 nM | 19.95 µM | 19.95 µM | 20000 nM | 1 (1: YES) | 78.18% | 115.81% | 450 nM | 447 nM | – | – | – | – | –
Cc1nc(C)c(-c2ccc(Oc3ccc(Cl)c(Cl)c3)cc2)c(O)c1Cl [TCMDC-137396] | 96 nM | – | – | 17000 nM | – | 89.72% | 133.12% | – | 124 nM | – | – | 16.98 µM | 1 (key: 1: YES; 0: NO) | 120 nM
Cc1nc(C)c(-c2ccc(Oc3ccc(Cl)c(Cl)c3)cc2)c(O)c1Br [TCMDC-137397] | 88 nM | 19.50 µM | 19.50 µM | 19500 nM | 1 (1: YES) | 88.28% | 102.35% | – | 90 nM | – | – | – | – | –
Cc1[nH]c(C)c(-c2ccc(Oc3ccc(F)cc3)cc2)c(=O)c1Br [TCMDC-137402] | 30 nM | 3.80 µM | 3.80 µM | 3800 nM | 1 (1: YES) | 94.48% | 95.56% | 56.7 nM | 57 nM | – | – | – | – | –
Cc1nc(C)c(-c2ccc(Sc3ccc(Cl)cc3)cc2)c(O)c1Br [TCMDC-137404] | 53 nM | – | – | 100000 nM | – | 89.90% | 109.40% | – | 77 nM | – | – | 100.00 µM | 1 (key: 1: YES; 0: NO) | 80 nM
Cc1[nH]c(C)c(-c2ccc(Oc3ccc(C(F)(F)F)cc3)cc2)c(=O)c1Br [TCMDC-137406] | 133 nM | 5.75 µM | 5.75 µM | 5750 nM | 1 (1: YES) | 103.93% | 109.45% | 130 nM | 127 nM | – | – | – | – | –
Cc1[nH]c(C)c(-c2ccc(C(=O)c3ccc(Cl)cc3)cc2)c(=O)c1Br [TCMDC-137407] | 56 nM | – | – | 44700 nM | – | 83.43% | 91.19% | – | 78 nM | – | – | 44.67 µM | 1 (key: 1: YES; 0: NO) | 80 nM
Cc1[nH]c(C)c(-c2ccc(Oc3ccccc3)cc2)c(=O)c1Br [TCMDC-137410] | 14 nM | 34.67 µM | 34.67 µM | 34700 nM | 1 (1: YES) | 89.72% | 108.12% | 33.8 nM | 34 nM | – | – | – | – | –
Cc1[nH]c(C)c(-c2ccc(C(=O)c3ccc(Cl)cc3)cc2)c(=O)c1Cl [TCMDC-137413] | 117 nM | – | – | 100000 nM | – | 122.85% | 129.69% | – | 171 nM | – | – | 100.00 µM | 1 (key: 1: YES; 0: NO) | 170 nM

Source: paper PMC6753678, “Fueling Open Innovation for Malaria Transmission-Blocking Drugs: Hundreds of Molecules Targeting Early Parasite Mosquito Stages” (Frontiers in Microbiology, 2019)
